System: K98450-129-R-PDC complex spheroid growth, percent test/control
Test: Anticancer human tumor K98450-129-R-PDC patient-derived colon adenocarcinoma cell line growth inhibition [RAS]
Details: for IC50: curve of first compound; for viability, T/C: stronger effect = lower value
Procedure, shortened: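 Multi-cell-type spheroids: tumor cells plus HUVEC endothelial cells and mesenchymal stem cells. RAS-pathway inhibitors were combined with targeted agents, each dosed in half-log steps down from clinical Cmax, or from 10 microM when Cmax was unknown.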
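Also: spheroids exposed to agents for seven days before the viability readout.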
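For viability, T/C in this document: luminescence used as a proxy for viable cell amount.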

IC50 (second compound 0.000949 µM): > 300 nM
IC50 (second compound 0.003 µM): > 300 nM
IC50 (second compound 0.00949 µM): > 300 nM
IC50 (second compound 0.03 µM): < 0.949 nM
IC50 (second compound 0.0949 µM): < 0.949 nM
IC50 (second compound 0.3 µM): < 0.949 nM
Compound: CC1(C)CCC(Nc2ncc(C(F)(F)F)c(-c3c[nH]c4c(P(C)(C)=O)c(C#N)ccc34)n2)CN1 (configuration not stated) + CCn1c(-c2cccnc2C(C)OC)c2c3cc(ccc31)N1CCOC(CC(NC(=O)C(C(C)C)N(C)C(=O)C3(F)CCN(C(=O)C#CC(C)(C)N(C)C)CC3)C(=O)N3CCCC(N3)C(=O)OCC(C)(C)C2)C1
viability, T/C (second compound 0.000949 µM, first compound 0.000949 µM): 88.2%
viability, T/C (second compound 0.000949 µM, first compound 0.003 µM): 72.2%
viability, T/C (second compound 0.000949 µM, first compound 0.00949 µM): 83.1%
viability, T/C (second compound 0.000949 µM, first compound 0.03 µM): 79.9%
viability, T/C (second compound 0.000949 µM, first compound 0.0949 µM): 80.8%
viability, T/C (second compound 0.000949 µM, first compound 0.3 µM): 53.8%
viability, T/C (second compound 0.003 µM, first compound 0.000949 µM): 72.4%
viability, T/C (second compound 0.003 µM, first compound 0.003 µM): 52.9%
viability, T/C (second compound 0.003 µM, first compound 0.00949 µM): 64.5%
viability, T/C (second compound 0.003 µM, first compound 0.03 µM): 67.7%
viability, T/C (second compound 0.003 µM, first compound 0.0949 µM): 61.1%
viability, T/C (second compound 0.003 µM, first compound 0.3 µM): 50.4%
viability, T/C (second compound 0.00949 µM, first compound 0.000949 µM): 52.5%
viability, T/C (second compound 0.00949 µM, first compound 0.003 µM): 45.5%
viability, T/C (second compound 0.00949 µM, first compound 0.00949 µM): 52.7%
viability, T/C (second compound 0.00949 µM, first compound 0.03 µM): 53.4%
viability, T/C (second compound 0.00949 µM, first compound 0.0949 µM): 51.8%
viability, T/C (second compound 0.00949 µM, first compound 0.3 µM): 49.6%
viability, T/C (second compound 0.03 µM, first compound 0.000949 µM): 45%
viability, T/C (second compound 0.03 µM, first compound 0.003 µM): 42.9%
viability, T/C (second compound 0.03 µM, first compound 0.00949 µM): 43.2%
viability, T/C (second compound 0.03 µM, first compound 0.03 µM): 45.1%
viability, T/C (second compound 0.03 µM, first compound 0.0949 µM): 48.2%
viability, T/C (second compound 0.03 µM, first compound 0.3 µM): 43.5%
viability, T/C (second compound 0.0949 µM, first compound 0.000949 µM): 39.2%
viability, T/C (second compound 0.0949 µM, first compound 0.003 µM): 41.1%
viability, T/C (second compound 0.0949 µM, first compound 0.00949 µM): 44.7%
viability, T/C (second compound 0.0949 µM, first compound 0.03 µM): 41.8%
viability, T/C (second compound 0.0949 µM, first compound 0.0949 µM): 50.3%
viability, T/C (second compound 0.0949 µM, first compound 0.3 µM): 43.1%
viability, T/C (second compound 0.3 µM, first compound 0.000949 µM): 34.3%
viability, T/C (second compound 0.3 µM, first compound 0.003 µM): 40.7%
viability, T/C (second compound 0.3 µM, first compound 0.00949 µM): 43.1%
viability, T/C (second compound 0.3 µM, first compound 0.03 µM): 36.2%
viability, T/C (second compound 0.3 µM, first compound 0.0949 µM): 46.9%
viability, T/C (second compound 0.3 µM, first compound 0.3 µM): 42%
